Where “and” joins values, the source holds several entries; their conditions need not be identical. Equal values may be shown once. Bridge positions count the residues as written; N and C are the ends. Square brackets hold non-standard residues; d marks the D form. Peptide text beside a SMILES is read from it. * marks the point of attachment. dPhe(4-NHCONH2) = NC(=O)Nc1ccc(C[C@@H](N)C(=O)O)cc1; Dihydroorotyl(S) = O=C1C[C@@H](C(=O)*)NC(=O)N1; dPhe(4-Cl) = N[C@H](Cc1ccc(Cl)cc1)C(=O)O; Phe(4-NH2) = Nc1ccc(C[C@H](N)C(=O)O)cc1; d2Nal = N[C@H](Cc1ccc2ccccc2c1)C(=O)O; Lys(iPr) = CC(C)NCCCC[C@H](N)C(=O)O; d3Pal = N[C@H](Cc1cccnc1)C(=O)O; Orn = NCCC[C@H](N)C(=O)O; Mpa = O=C(O)CCS
Tested on: B cell
Test: Cytotoxicity screening of chemical probes in isolated B cell assay. Data is normalized to DMSO control, the cell viability average of replicates are reported. Reduction of ATP level more than 20% indicate compromised cell health status.
Settings: human, 1 µM

Compound	Cell Viability
C[C@H](CO)Nc1nc(SCc2cccc(Cl)c2F)nc2[nH]c(=O)sc12	95.8941%
COc1ccncc1C(=O)NC(=O)Nc1ccc(-c2ccccc2)c(C(F)(F)F)c1	98.0011%
COc1ccc(C(=O)N2CCN(C(=O)/C=C/c3ccc(Br)cc3)CC2)cc1	98.0011%
CC[C@H]1OC(=O)[C@H](C)[C@@H](O[C@H]2C[C@@](C)(OC)[C@@H](O)[C@H](C)O2)[C@H](C)[C@@H](O[C@@H]2O[C@H](C)C[C@H](N(C)C)[C@H]2O)[C@@]2(C)CC(C)=C(O2)[C@H](C)[C@@H](O)[C@]1(C)O	98.0011%
O=C(O)Cc1ccccc1Nc1c(Cl)cccc1Cl [DICLOFENAC]	98.0011% and 91.1433%
CC1(C)[C@H]2C[C@H](C/C=C\CCCC(=O)O)[C@@H](NC(=O)c3csc4ccc(O)cc34)[C@@H]1C2	98.0011%
Cc1ccc(/C(=C\CN2CCCC2)c2ccccn2)cc1 [TRIPROLIDINE]	98.0011%
N#Cc1c(O)nc(SCc2cccc(F)c2F)nc1C1CC1	104.007%
COC[C@@H](c1ccc(C(F)(F)F)cc1)N1CCN(C2(C)CCN(C(=O)c3c(C)ncnc3C)CC2)C[C@@H]1C.O=C(O)/C=C\C(=O)O [VICRIVIROC MALEATE]	101.876%
c1ccc(NCc2ccc(CNc3ccccn3)cc2)nc1	99.8082%
CCCn1c(=O)c2[nH]c(C3CCCC3)nc2n(CCC)c1=O [1,3-DIPROPYL-8-CYCLOPENTYLXANTHINE [DPCPX]]	98.0011%
CCc1nc2c(C)cc(C)nc2[nH]1	98.0011%
CC(C)Cc1ccc([C@@H](C)C(=O)NS(C)(=O)=O)cc1 [REPARIXIN]	98.0011% and 100.432%
O=C(NCc1ccc(F)cc1)N1CCN2C(=O)OC(c3ccccc3)(c3ccccc3)C2C1 (stereo not drawn)	98.0011%
Cc1c(F)cccc1NC(=O)Nc1ccc(Cl)c(S(=O)(=O)[C@H]2CCCNC2)c1O [DANIRIXIN]	101.889%
c1cc(CN2CCCNCCNCCCNCC2)ccc1CN1CCCNCCNCCCNCC1 [PLERIXAFOR]	104.498%
COCCn1c(C)c(C)s/c1=N\C(=O)C1C(C)(C)C1(C)C	98.0011%
Cc1cc(OCCCS(C)(=O)=O)cc(C)c1-c1cccc(COc2ccc3c(c2)OC[C@H]3CC(=O)O)c1	98.0011%
O=C(NCC(=O)N1CC[C@H](N[C@H]2CC[C@@](O)(c3ccc(-c4ncccn4)cn3)CC2)C1)c1cccc(C(F)(F)F)c1 [PF-4136309]	99.5458%
CSc1cc2c(cc1C(F)(F)F)N(C(=O)Nc1cccnc1)CC2	98.0011%
COc1cc(C(=O)N(CCCc2ccccc2)Cc2ccc(CC(=O)O)cc2)cc(OC)c1C	98.0011%
C[C@@H](OC[C@@]1(c2ccccc2)CC[C@]2(CCC(=O)N2)CN1)c1cc(C(F)(F)F)cc(C(F)(F)F)c1 [ROLAPITANT]	98.0011%
Nc1nc2c(c(N3CCNCC3)n1)CCC1=C2[C@@H]2CCCC[C@@H]2O1	100.079%
Cc1nc[nH]c1CCN.Cl	98.0011%
COc1cccc2c1c(NS(=O)(=O)c1ccc(Cl)s1)nn2Cc1cccc(CNC(=O)C(C)(C)O)c1	103.681%
Cl.O=c1c2cccn2c2ccccc2n1CCCN1CCC(c2ccc(Cl)cc2)CC1	98.0011% and 103.839%
CC(C)C[C@@H]1NC(=O)[C@@H](C(C)C)NC(=O)[C@@H]2CCCN2C(=O)[C@@H](CC(=O)O)NC(=O)[C@@H](Cc2c[nH]c3ccccc23)NC1=O [BQ-123] (cyclo(L[dW][dD]P[dV]))	98.0011%

Compound	Cell Viability
Cc1c(C(=O)NN2CCCCC2)nn(-c2ccc(Cl)cc2Cl)c1-c1ccc(Cl)cc1 [RIMONABANT]	98.0011%
Cc1ccc(Cn2nc(C(=O)N[C@@H]3C(C)(C)[C@@H]4CC[C@@]3(C)C4)cc2-c2ccc(Cl)c(C)c2)cc1	98.0011%
C[C@]12N[C@H](Cc3ccccc31)c1ccccc12 [DIZOCILPINE]	98.0011%
CC#C[C@@H](CC(=O)O)c1ccc(OCc2cccc(-c3ccc(C(F)(F)F)cc3)c2)cc1	98.0011%
Cc1nnc(C(=O)NC(C)(C)c2nc(C(=O)NCc3ccc(F)cc3)c(O)c(=O)n2C)o1	103.493%
c1cc(OCCCN2CCCCC2)ccc1CN1CCCCC1 [JNJ-5207852]	98.0011%
CCCCC(=O)N(Cc1ccc(-c2ccccc2-c2nnn[nH]2)cc1)[C@H](C(=O)O)C(C)C	98.0011%
N#Cc1ccc(NC(=O)Nc2ccccc2Br)c2nn[nH]c12	104.304%
NC(=O)c1ccc(CNC(=O)NC[C@H]2CN(Cc3ccc(Cl)c(Cl)c3)CCO2)cc1	98.0011%
Cl.Clc1ccc2nsnc2c1NC1=NCCN1 [TIZANIDINE HYDROCHLORIDE]	98.0011%
NS(=O)(=O)c1c(Cl)ccc(NC(=O)Nc2cccc(Cl)c2Cl)c1O	102.927%
CCOc1ccc(C[C@H]2NC(=O)CCSSC[C@@H](C(=O)N3CCC[C@H]3C(=O)N[C@@H](CCCN)C(=O)NCC(N)=O)NC(=O)[C@H](CC(N)=O)NC(=O)[C@H]([C@@H](C)O)NC(=O)[C@H]([C@@H](C)CC)NC2=O)cc1 [ATOSIBAN] ([Mpa][dY](Et)ITNCP[Orn]G-NH2; disulfide 1-6)	98.0011%
C[C@@H](O[C@H]1OCCN(Cc2n[nH]c(=O)[nH]2)[C@H]1c1ccc(F)cc1)c1cc(C(F)(F)F)cc(C(F)(F)F)c1 [APREPITANT]	98.0011%
COC(c1ccccc1)(c1ccccc1)[C@H](Oc1nc(C)cc(C)n1)C(=O)O [AMBRISENTAN]	98.0011%
CCNC1(C(N)=O)CCN(c2ncnc3c2nc(-c2ccccc2Cl)n3-c2ccc(Cl)cc2)CC1 [OTENABANT]	98.0011%
Cc1[nH]cnc1CN1CCc2c(c3ccccc3n2C)C1=O [ALOSETRON]	98.0011%
CCOc1nc2cccc(C(=O)O)c2n1Cc1ccc(-c2ccccc2-c2nnn[nH]2)cc1	98.0011%
CC(C)N(CCCCOCC(=O)NS(C)(=O)=O)c1cnc(-c2ccccc2)c(-c2ccccc2)n1 [SELEXIPAG]	98.0011%
O=C(O)c1n[nH]c2c1C[C@H]1C[C@@H]21	98.0011%
CC(C)C[C@H](CO)Nc1nc(S[C@@H](C)c2ccccc2)nc2nc(N)sc12 [AZD-8797]	97.9584%
C[C@@H]1CN(Cc2ccc(F)cc2)CCN1C(=O)COc1ccc(Cl)cc1NC(N)=O [BX 471 FREE BASE]	98.0011% and 103.598%
O=S(=O)(c1ccccc1)c1cnc2c(N3CCNCC3)cccc2c1 [INTEPIRDINE]	98.0011%
CC(=O)N[C@H](Cc1ccc2ccccc2c1)C(=O)N[C@H](Cc1ccc(Cl)cc1)C(=O)N[C@H](Cc1cccnc1)C(=O)N[C@@H](CO)C(=O)N[C@@H](Cc1ccc(NC(=O)[C@@H]2CC(=O)NC(=O)N2)cc1)C(=O)N[C@H](Cc1ccc(NC(N)=O)cc1)C(=O)N[C@@H](CC(C)C)C(=O)N[C@@H](CCCCNC(C)C)C(=O)N1CCC[C@H]1C(=O)N[C@H](C)C(N)=O [DEGARELIX] (Ac-[d2Nal][dPhe(4-Cl)][d3Pal]S[Phe(4-NH2)](Dihydroorotyl(S))[dPhe(4-NHCONH2)]L[Lys(iPr)]P[dA]-NH2)	98.0011%
Cc1cc(Cn2cnc3c2C[C@@H](C(=O)O)N(C(=O)C(c2ccccc2)c2ccccc2)C3)ccc1N(C)C	98.0011%
CSc1ccc(C(=O)N[C@@H]2CCCC[C@@H]2NC(=O)CNC(=O)c2cc(C(F)(F)F)ccc2NC(=O)NC(C)C)cc1	102.032%
Cc1ccc2c(c1CCC(=O)O)CC[C@@H](NS(=O)(=O)c1ccc(Cl)cc1)C2 [TERUTROBAN]	98.0011%

— ChEMBL document CHEMBL5724581, “Toxicity screen in purified B cell assay results for EUbOPEN Chemogenomics Library” (2024)
